Reference: publication PMC7271289, “Anti-Inflammatory and Anticoagulant Activities of Synthesized NSAID Prodrug Esters” (Scientifica, 2020)
pIC50: −log10 of the molar value. Where two headings read alike, the source gives them in different places.

Key:
[1] = tested on: platelet poor citrated plasma; experiment: Prothrombin time (PT) test; type: biochemical, human; conditions: drug sample 3000 mg/L; for PT Average ± SD: average of three volunteers; for PT: equal volume with plasma, 5 min at 37°C
Protocol: (§1) PT and aPTT tests were carried out simultaneously. Blood samples from three healthy volunteers were collected in sodium citrated blood tubes (Vacutainer, BD). Blood samples were then centrifuged for 15 min at 1500 rpm to prepare platelet poor citrated plasma. The LABiTec (Germany) apparatus was used for the determination of PT and aPTT. Equal volumes of drug samples (3000 mg/L) and platelet-depleted plasma were incubated for 5 min at 37°C. The PT test was performed as follows: a 100 μl of tissue thromboplastin (HUMAN) was added to 50 μl of prewarmed mixture, and clotting time was measured. For the aPTT test, 50 μl of rabbit brain extract was added to equal volume of the prewarmed platelet poor plasma-extract mixture incubated for 1 minute after which 50 μl of 0.025 M calcium chloride (HUMAN) was added and clotting time was measured; PBS was used as control.

[2] = tested on: platelet poor citrated plasma; experiment: Activated partial thromboplastin time (aPTT) test; type: biochemical, human; conditions: drug sample 3000 mg/L; for aPTT Average ± SD: average of three volunteers; for aPTT: equal volume with plasma, 5 min at 37°C
Protocol: as §1

[3] = molecular target: T1, COX1 (Ovis aries, UniProt P05979); conditions: previous published literature; cited from earlier work
T1 sequence (P05979 25-600): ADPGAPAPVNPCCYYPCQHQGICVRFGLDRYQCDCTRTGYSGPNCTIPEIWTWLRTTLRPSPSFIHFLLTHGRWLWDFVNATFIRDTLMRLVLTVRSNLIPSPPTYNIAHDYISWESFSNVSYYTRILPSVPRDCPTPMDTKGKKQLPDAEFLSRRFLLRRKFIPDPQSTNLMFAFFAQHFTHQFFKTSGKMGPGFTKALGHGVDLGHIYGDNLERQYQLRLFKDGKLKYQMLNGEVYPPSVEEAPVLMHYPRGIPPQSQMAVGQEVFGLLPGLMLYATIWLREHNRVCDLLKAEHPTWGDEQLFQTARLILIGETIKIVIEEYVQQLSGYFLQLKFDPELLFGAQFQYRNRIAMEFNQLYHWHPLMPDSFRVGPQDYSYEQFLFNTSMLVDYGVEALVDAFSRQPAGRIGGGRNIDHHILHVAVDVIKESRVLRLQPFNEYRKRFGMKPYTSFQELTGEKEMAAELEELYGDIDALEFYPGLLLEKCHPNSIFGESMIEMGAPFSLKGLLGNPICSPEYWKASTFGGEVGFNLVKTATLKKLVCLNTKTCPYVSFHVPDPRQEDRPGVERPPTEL

[4] = molecular target: T2, COX2 (Homo sapiens, UniProt P35354); experiment: biochemical
T2 construct: purchased Cayman Chemical, USA 560131
T2 sequence (P35354 18-604): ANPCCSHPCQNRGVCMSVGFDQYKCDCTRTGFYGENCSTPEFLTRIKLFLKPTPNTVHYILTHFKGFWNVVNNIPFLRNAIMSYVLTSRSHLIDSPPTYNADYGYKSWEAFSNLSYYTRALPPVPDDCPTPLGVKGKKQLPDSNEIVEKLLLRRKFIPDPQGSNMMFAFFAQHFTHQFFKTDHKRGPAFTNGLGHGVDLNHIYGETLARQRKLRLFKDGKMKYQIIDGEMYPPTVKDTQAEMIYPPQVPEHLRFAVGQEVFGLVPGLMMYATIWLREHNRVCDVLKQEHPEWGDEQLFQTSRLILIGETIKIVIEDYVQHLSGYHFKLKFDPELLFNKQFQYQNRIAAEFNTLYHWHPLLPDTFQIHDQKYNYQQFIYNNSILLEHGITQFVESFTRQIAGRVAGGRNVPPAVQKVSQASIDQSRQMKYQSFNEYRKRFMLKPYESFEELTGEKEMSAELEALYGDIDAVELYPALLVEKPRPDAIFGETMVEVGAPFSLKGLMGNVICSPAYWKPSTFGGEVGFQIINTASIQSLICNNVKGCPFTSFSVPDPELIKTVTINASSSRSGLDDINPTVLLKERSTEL
Protocol: IR (infrared) spectra were done using FTIR (Thermo Fisher Nicolet IS5). […] Nuclear magnetic resonance (NMR) spectra were obtained using the Bruker Avance (300 MHz) spectrometer, micropipettes (Finnpipette, Finland), incubator (Nuve, Turkey), syringe filter 0.45 μm pore size (Microlab, China), microbroth plate (Greiner bio-one, North America), and LABiTec (Germany) for PT and aPTT tests.
The plate is washed with a buffer solution, and Ellman's reagent, which contains the substrate of acetylcholinesterase, is added to the well. […] The anti-inflammatory effect of the tested compounds was evaluated by calculating the percentage inhibition of PGE2 production.

[5] = molecular target: T1, COX1; experiment: COX inhibitor screening assay kit (Cayman No. 560131), COX1; type: biochemical; design: purchased Cayman Chemical, USA 560131; conditions: for IC50: ELISA kit, calculated from percentage inhibition of PGE2 production, read-out: IC50 for COX1 enzyme (converted)
Protocol: The instrumentation used in this project includes magnetic stirrer and heater (LM-1003), weighing balance (Adventurer-OHAVS-AR2140), and rotaevaporator (Heidolph-OB2000). IR (infrared) spectra were done using FTIR (Thermo Fisher Nicolet IS5). The UV-VIS spectra were done using the JENWAY-7315 spectrophotometer. Nuclear magnetic resonance (NMR) spectra were obtained using the Bruker Avance (300 MHz) spectrometer, micropipettes (Finnpipette, Finland), incubator (Nuve, Turkey), syringe filter 0.45 μm pore size (Microlab, China), microbroth plate (Greiner bio-one, North America), and LABiTec (Germany) for PT and aPTT tests. The Cyclooxygenase (COX) enzyme inhibition test was performed using COX inhibitor screening assay kit No. 560131 Cayman Chemical, USA and was read by Elisaplate Reader (BioRad, Japan).
COX1 and COX2 inhibition activities were determined using a COX inhibitor screening assay kit No. 560131 by Cayman Chemical, USA. The plate is washed with a buffer solution, and Ellman's reagent, which contains the substrate of acetylcholinesterase, is added to the well. The yellow product of this enzymatic reaction is determined spectrophotometrically in a microplate reader (BioRad, Japan) at 415 nm. […]. The anti-inflammatory effect of the tested compounds was evaluated by calculating the percentage inhibition of PGE2 production.

[6] = molecular target: T2, COX2; conditions: previous published literature; read-out: inhibition activity for COX2 enzyme (converted); cited from earlier work

Compound | PT Average ± SD [1] | PT ([1]; volunteer 1) | PT ([1]; volunteer 2) | PT ([1]; volunteer 3) | aPTT Average ± SD [2] | aPTT ([2]; volunteer 1) | aPTT ([2]; volunteer 2) | aPTT ([2]; volunteer 3) | inhibition activity for COX1 enzyme [3] | pIC50 [4] | aPTT Average ± SD ([2]; listed as naproxen-paracetamol ester) | IC50 [5] | IC50 ([4]; ELISA kit, calculated from percentage inhibition of PGE2 production, read-out: IC50 for COX2 enzyme (converted)) | selectivity COX1 versus COX2 ([5]; comparison of the COX1 and COX2 IC50) | IC50 [6]
CC(=O)Nc1ccc(O)cc1 [Paracetamol, reference compound] | 21.7 ± 4.52 s | 18.5 s | 19.4 s | 27.1 s | 72 ± 8.7 s | 73.1 s | 62.8 s | 80.2 s | less IC50 inhibition activity |  |  |  |  |  | 
COc1ccc2cc([C@H](C)C(=O)Oc3ccc(NC(C)=O)cc3)ccc2c1 [Nap-Para ester] | 21.8 ± 2.86 s | 20.4 s | 19.9 s | 25.1 s | 69.9 ± 8.79 s | 78.2 s | 70.9 s | 60.7 s |  | 5.28 | 69.9 ± 7.7 s | 4.13 µM |  |  | 
CC(=O)Nc1ccc(OC(=O)C(C)c2ccc(CC(C)C)cc2)cc1 (stereo not drawn) [Ibu-Para ester, 4-Acetamidophenyl 2-(4-isobutylphenyl) propanoate] | 23.8 ± 6.08 s | 19.8 s | 20.8 s | 30.8 s | 71 ± 0.9 s | 71.2 s | 71.8 s | 70 s |  |  |  | 1.56 µM | 6.5 µM | more selective towards COX1 | 
CC(C)Cc1ccc(C(C)C(=O)O)cc1 (stereo not drawn) [Ibuprofen, reference compound] | 21.3 ± 3.3 s |  |  |  |  |  |  |  |  |  |  |  |  |  | 
COc1ccc2cc([C@H](C)C(=O)O)ccc2c1 [Naproxen] |  |  |  |  |  |  |  |  |  |  |  |  |  |  | 5.65 µM
